Measurements as given in patent publication US20230144436A1, “MUSCLE TARGETING COMPLEXES AND USES THEREOF FOR TREATING MYOTONIC DYSTROPHY” (Dyne Therapeutics, Inc., priority 2020, published 2023).

Tested on: DMPK
Assay: DMPK knockdown by transfected antisense oligonucleotides in DM1 C15 myotubes at 0.5 nM and 50 nM
Assay type: cell-based
Conditions: 72 hours; for Normalized DMPK Remaining: relative to vehicle control = 1.00
Procedure, shortened: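 Seven-day-differentiated DM1 C15 myotubes transfected (Lipofectamine MessengerMax) with each oligonucleotide at 0.5 nM or 50 nM final, biological triplicates. After 72 h, DMPK mRNA quantified by qPCR, expressed relative to vehicle-only transfection set to 1.00.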

Row | Substance | Percent DMPK Reduction (0.5 nM oligonucleotide) [%] | Normalized DMPK Remaining (0.5 nM oligonucleotide) | Percent DMPK Reduction (50 nM oligonucleotide) [%] | Normalized DMPK Remaining (50 nM oligonucleotide)
1 | 411 (UUGCCCAUCCACGUCAGGGC; chemistry not given here) [compound 411] | 22.23 | 0.78 | 67.15 | 0.33
2 | 412 (AGGUACAGGUAGUUCUCAUC; chemistry not given here) [compound 412] | 18.68 | 0.81 | 58.92 | 0.41
3 | 413 (GACAGACAAUAAAUACCGAG; chemistry not given here) [compound 413] | 18.26 | 0.82 | 38.07 | 0.62
4 | 414 (UAGAACAUUUCAUAGGCGAA; chemistry not given here) [compound 414] | 20.23 | 0.80 | 43.67 | 0.56
5 | 415 (AGGGCCUUUUAUUCGCGAGG; chemistry not given here) [compound 415] | 13.63 | 0.86 | 66.43 | 0.34
6 | 416 (GCCUCGCGUAGUUGACUGGC; chemistry not given here) [compound 416] | 12.98 | 0.87 | 91.10 | 0.09
7 | 417 (CCAGCAGGAUGUUGUCGGGU; chemistry not given here) [compound 417] | 40.29 | 0.60 | 89.59 | 0.10
8 | 418 (GUAGUUGACUGGCGAAGUUC; chemistry not given here) [compound 418] | 7.50 | 0.93 | 45.33 | 0.55
9 | 419 (UGCGGAUGGCCUCCAUCUCC; chemistry not given here) [compound 419] | 40.15 | 0.60 | 84.43 | 0.16
10 | 420 (ACAAUCUCCGCCAGGUAGAA; chemistry not given here) [compound 420] | 19.09 | 0.81 | 49.75 | 0.50
11 | 421 (GCGAAUACACCCAGCGCCCA; chemistry not given here) [compound 421] | 6.94 | 0.93 | 69.72 | 0.30
12 | 422 (GUAGUUCUCAUCCUGGAAGG; chemistry not given here) [compound 422] | 7.43 | 0.93 | 55.09 | 0.45
13 | 423 (GGCUCAGGCUCUGCCGGGUG; chemistry not given here) [compound 423] | 7.38 | 0.93 | 65.82 | 0.34
14 | 424 (CCAUUCACCAACACGUCCCU; chemistry not given here) [compound 424] | 39.26 | 0.61 | 86.83 | 0.13
15 | 425 (ACCAGGUACAGGUAGUUCUC; chemistry not given here) [compound 425] | 16.09 | 0.84 | 76.96 | 0.23
16 | 426 (CTGCAGUUUGCCCAUCCACG; chemistry not given here) [compound 426] | -10.69 | 1.11 | 60.08 | 0.40
